Patent US12577234B2, “Antagonists of the muscarinic acetylcholine receptor M4” (Vanderbilt University, priority 2017, dated 2026)

Target: T1, human mAChR M4 (Homo sapiens, UniProt P08173)
T1 construct: expressed in transfected cells; host or cells: CHO-K1 (ATCC), stably co-expressing chimeric G protein Gqi5
T1 sequence (P08173 1-479): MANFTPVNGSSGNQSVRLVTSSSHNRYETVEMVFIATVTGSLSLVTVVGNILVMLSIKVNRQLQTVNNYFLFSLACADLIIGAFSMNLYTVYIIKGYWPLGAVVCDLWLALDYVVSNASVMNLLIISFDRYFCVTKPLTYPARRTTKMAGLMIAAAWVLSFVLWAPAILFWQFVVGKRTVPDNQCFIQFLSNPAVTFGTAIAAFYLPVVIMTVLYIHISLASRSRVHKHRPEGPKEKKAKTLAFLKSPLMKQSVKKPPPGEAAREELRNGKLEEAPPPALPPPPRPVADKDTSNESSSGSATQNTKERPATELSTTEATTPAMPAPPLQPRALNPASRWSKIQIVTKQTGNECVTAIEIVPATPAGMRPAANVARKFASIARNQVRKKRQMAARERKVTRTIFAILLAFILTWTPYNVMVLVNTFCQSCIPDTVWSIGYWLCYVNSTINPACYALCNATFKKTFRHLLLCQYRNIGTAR
Assay: mAChR M4 cell-based functional assay (calcium mobilization, EC80 acetylcholine), human M4
Details: Table 10; for IC50: M4/Gqi5/CHO-K1 cells, decrease of EC80 acetylcholine response
Procedure, shortened: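 CHO-K1 cells stably expressing human M4 with chimeric Gqi5; intracellular calcium rise read on FDSS as fluorescence static ratio at 1 Hz. Compounds in 10-point 1:3 dilution series; IC50 taken as concentration-dependent decrease of the EC80 acetylcholine response, four-parameter logistic fit.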

## c1coc(-c2ccc(N[C@H]3C[C@@H]4CN(CC5CCOCC5)C[C@@H]4C3)nn2)c1 [Compound 188, (3aR,5s,6aS)-N-[6-(2-furyl)pyridazin-3-yl]-2-(tetrahydropyran-4-ylmethyl)-3,3a,4,5,6,6a-hexahydro-1H-cyclopenta[c]pyrrol-5-amine]
  Human M4 Emin: 14%
  IC50: 7.94 nM

## FC1(F)CCN(c2ccc(N[C@H]3C[C@@H]4CN(CC5CCOCC5)C[C@@H]4C3)nn2)C1 [Compound 189, (3aR,5s,6aS)-N-[6-(3,3-difluoropyrrolidin-1-yl)pyridazin-3-yl]-2-(tetrahydropyran-4-ylmethyl)-3,3a,4,5,6,6a-hexahydro-1H-cyclopenta[c]pyrrol-5-amine]
  Human M4 Emin: 8%
  IC50: 2.07 nM

## FC1(F)CCN(c2ccc(N[C@H]3C[C@@H]4CN(CC5CCOCC5)C[C@@H]4C3)nn2)CC1 [Compound 190, (3aR,5s,6aS)-N-[6-(4,4-difluoro-1-piperidyl)pyridazin-3-yl]-2-(tetrahydropyran-4-ylmethyl)-3,3a,4,5,6,6a-hexahydro-1H-cyclopenta[c]pyrrol-5-amine]
  Human M4 Emin: 4%
  IC50: 1.67 nM

## c1cc(N2CCOCC2)nnc1N[C@H]1C[C@@H]2CN(CC3CCOCC3)C[C@@H]2C1 [Compound 191, (3aR,5s,6aS)-N-(6-morpholinopyridazin-3-yl)-2-(tetrahydropyran-4-ylmethyl)-3,3a,4,5,6,6a-hexahydro-1H-cyclopenta[c]pyrrol-5-amine]
  Human M4 Emin: 5%
  IC50: 13.4 nM

## c1cc(N2CCCC2)nnc1N[C@H]1C[C@@H]2CN(CC3CCOCC3)C[C@@H]2C1 [Compound 192, (3aR,5s,6aS)-N-(6-pyrrolidin-1-ylpyridazin-3-yl)-2-(tetrahydropyran-4-ylmethyl)-3,3a,4,5,6,6a-hexahydro-1H-cyclopenta[c]pyrrol-5-amine]
  Human M4 Emin: 6%
  IC50: 40.6 nM

## c1cc(N2CCCCC2)nnc1N[C@H]1C[C@@H]2CN(CC3CCOCC3)C[C@@H]2C1 [Compound 193, (3aR,5s,6aS)-N-[6-(1-piperidyl)pyridazin-3-yl]-2-(tetrahydropyran-4-ylmethyl)-3,3a,4,5,6,6a-hexahydro-1H-cyclopenta[c]pyrrol-5-amine]
  Human M4 Emin: 3%
  IC50: 0.8 nM

## F[C@@H]1CCN(c2ccc(N[C@H]3C[C@@H]4CN(CC5CCOCC5)C[C@@H]4C3)nn2)C1 [Compound 194, (3aR,5s,6aS)-N-[6-[(3S)-3-fluoropyrrolidin-1-yl]pyridazin-3-yl]-2-(tetrahydropyran-4-ylmethyl)-3,3a,4,5,6,6a-hexahydro-1H-cyclopenta[c]pyrrol-5-amine]
  Human M4 Emin: 5%
  IC50: 12.5 nM

## F[C@H]1CCN(c2ccc(N[C@H]3C[C@@H]4CN(CC5CCOCC5)C[C@@H]4C3)nn2)C1 [Compound 195, (3aR,5s,6aS)-N-[6-[(3R)-3-fluoropyrrolidin-1-yl]pyridazin-3-yl]-2-(tetrahydropyran-4-ylmethyl)-3,3a,4,5,6,6a-hexahydro-1H-cyclopenta[c]pyrrol-5-amine]
  Human M4 Emin: 4%
  IC50: 9.11 nM

## FC1(F)CCCN(c2ccc(N[C@H]3C[C@@H]4CN(CC5CCOCC5)C[C@@H]4C3)nn2)C1 [Compound 196, (3aR,5s,6aS)-N-[6-(3,3-difluoro-1-piperidyl)pyridazin-3-yl]-2-(tetrahydropyran-4-ylmethyl)-3,3a,4,5,6,6a-hexahydro-1H-cyclopenta[c]pyrrol-5-amine]
  Human M4 Emin: 4%
  IC50: 2.09 nM

## c1ccc(-c2ccc(N[C@H]3C[C@@H]4CN(CC5CCOCC5)C[C@@H]4C3)nn2)cc1 [Compound 197, (3aR,5s,6aS)-N-(6-phenylpyridazin-3-yl)-2-(tetrahydropyran-4-ylmethyl)-3,3a,4,5,6,6a-hexahydro-1H-cyclopenta[c]pyrrol-5-amine]
  Human M4 Emin: 9%
  IC50: 1.25 nM

## Cc1ccc(-c2ccc(N[C@H]3C[C@@H]4CN(CC5CCOCC5)C[C@@H]4C3)nn2)cc1 [Compound 198, (3aR,5s,6aS)-N-[6-(p-tolyl)pyridazin-3-yl]-2-(tetrahydropyran-4-ylmethyl)-3,3a,4,5,6,6a-hexahydro-1H-cyclopenta[c]pyrrol-5-amine]
  Human M4 Emin: 6%
  IC50: 3.99 nM

## COc1ccccc1-c1ccc(N[C@H]2C[C@@H]3CN(CC4CCOCC4)C[C@@H]3C2)nn1 [Compound 199, (3aR,5s,6aS)-N-[6-(2-methoxyphenyl)pyridazin-3-yl]-2-(tetrahydropyran-4-ylmethyl)-3,3a,4,5,6,6a-hexahydro-1H-cyclopenta[c]pyrrol-5-amine]
  Human M4 Emin: 5%
  IC50: 0.579 nM

## COc1cccc(-c2ccc(N[C@H]3C[C@@H]4CN(CC5CCOCC5)C[C@@H]4C3)nn2)c1 [Compound 200, (3aR,5s,6aS)-N-[6-(3-methoxyphenyl)pyridazin-3-yl]-2-(tetrahydropyran-4-ylmethyl)-3,3a,4,5,6,6a-hexahydro-1H-cyclopenta[c]pyrrol-5-amine]
  Human M4 Emin: 6%
  IC50: 4 nM

## COc1ccc(-c2ccc(N[C@H]3C[C@@H]4CN(CC5CCOCC5)C[C@@H]4C3)nn2)cc1 [Compound 201, (3aR,5s,6aS)-N-[6-(4-methoxyphenyl)pyridazin-3-yl]-2-(tetrahydropyran-4-ylmethyl)-3,3a,4,5,6,6a-hexahydro-1H-cyclopenta[c]pyrrol-5-amine]
  Human M4 Emin: 7%
  IC50: 3.54 nM

## Fc1cccc(-c2ccc(N[C@H]3C[C@@H]4CN(CC5CCOCC5)C[C@@H]4C3)nn2)c1Cl [Compound 202, (3aR,5s,6aS)-N-[6-(2-chloro-3-fluoro-phenyl)pyridazin-3-yl]-2-(tetrahydropyran-4-ylmethyl)-3,3a,4,5,6,6a-hexahydro-1H-cyclopenta[c]pyrrol-5-amine]
  Human M4 Emin: 5%
  IC50: 0.517 nM

## Fc1ccc(-c2ccc(N[C@H]3C[C@@H]4CN(CC5CCOCC5)C[C@@H]4C3)nn2)c(Cl)c1 [Compound 203, (3aR,5s,6aS)-N-[6-(2-chloro-4-fluoro-phenyl)pyridazin-3-yl]-2-(tetrahydropyran-4-ylmethyl)-3,3a,4,5,6,6a-hexahydro-1H-cyclopenta[c]pyrrol-5-amine]
  Human M4 Emin: 5%
  IC50: 1.25 nM

## Fc1cccc(Cl)c1-c1ccc(N[C@H]2C[C@@H]3CN(CC4CCOCC4)C[C@@H]3C2)nn1 [Compound 204, (3aR,5s,6aS)-N-[6-(2-chloro-6-fluoro-phenyl)pyridazin-3-yl]-2-(tetrahydropyran-4-ylmethyl)-3,3a,4,5,6,6a-hexahydro-1H-cyclopenta[c]pyrrol-5-amine]
  Human M4 Emin: 4%
  IC50: 0.432 nM

## Clc1ccccc1-c1ccc(N[C@H]2C[C@@H]3CN(CC4CCOCC4)C[C@@H]3C2)nn1 [Compound 205, (3aR,5s,6aS)-N-[6-(2-chlorophenyl)pyridazin-3-yl]-2-(tetrahydropyran-4-ylmethyl)-3,3a,4,5,6,6a-hexahydro-1H-cyclopenta[c]pyrrol-5-amine]
  Human M4 Emin: 4%
  IC50: 0.365 nM

## CC(=O)Nc1ccccc1-c1ccc(N[C@H]2C[C@@H]3CN(CC4CCOCC4)C[C@@H]3C2)nn1 [Compound 206, N-[2-[6-[[(3aR,5s,6aS)-2-(tetrahydropyran-4-ylmethyl)-3,3a,4,5,6,6a-hexahydro-1H-cyclopenta[c]pyrrol-5-yl]amino]pyridazin-3-yl]phenyl]acetamide]
  Human M4 Emin: 38%
  IC50: 57.4 nM

## CN(C)C(=O)c1ccc(-c2ccc(N[C@H]3C[C@@H]4CN(CC5CCOCC5)C[C@@H]4C3)nn2)cc1 [Compound 207, 4-[6-[[(3aR,5s,6aS)-2-(tetrahydropyran-4-ylmethyl)-3,3a,4,5,6,6a-hexahydro-1H-cyclopenta[c]pyrrol-5-yl]amino]pyridazin-3-yl]-N,N-dimethyl-benzamide]
  Human M4 Emin: 16%
  IC50: 44.8 nM

## Cn1cc(-c2ccc(N[C@H]3C[C@@H]4CN(CC5CCOCC5)C[C@@H]4C3)nn2)cn1 [Compound 208, (3aR,5s,6aS)-N-[6-(1-methylpyrazol-4-yl)pyridazin-3-yl]-2-(tetrahydropyran-4-ylmethyl)-3,3a,4,5,6,6a-hexahydro-1H-cyclopenta[c]pyrrol-5-amine]
  Human M4 Emin: 25%
  IC50: 4.14 nM

## c1nn(C2CC2)cc1-c1ccc(N[C@H]2C[C@@H]3CN(CC4CCOCC4)C[C@@H]3C2)nn1 [Compound 209, (3aR,5s,6aS)-N-[6-(1-cyclopropylpyrazol-4-yl)pyridazin-3-yl]-2-(tetrahydropyran-4-ylmethyl)-3,3a,4,5,6,6a-hexahydro-1H-cyclopenta[c]pyrrol-5-amine]
  Human M4 Emin: 13%
  IC50: 4.41 nM

## Cc1noc(C)c1-c1ccc(N[C@H]2C[C@@H]3CN(CC4CCOCC4)C[C@@H]3C2)nn1 [Compound 210, (3aR,5s,6aS)-N-[6-(3,5-dimethylisoxazol-4-yl)pyridazin-3-yl]-2-(tetrahydropyran-4-ylmethyl)-3,3a,4,5,6,6a-hexahydro-1H-cyclopenta[c]pyrrol-5-amine]
  Human M4 Emin: 26%
  IC50: 54.9 nM
